{
  "source": "paper PMC11330772",
  "about": "“Unveiling the kinetic versatility of aryl-alcohol oxidases with different electron acceptors” (Frontiers in Bioengineering and Biotechnology, 2024)",
  "key": {"PeAAO [1]": {"target": "T1, PeAAO (Pleurotus eryngii, UniProt O94219)", "T1 sequence (O94219 entry or part of it)": "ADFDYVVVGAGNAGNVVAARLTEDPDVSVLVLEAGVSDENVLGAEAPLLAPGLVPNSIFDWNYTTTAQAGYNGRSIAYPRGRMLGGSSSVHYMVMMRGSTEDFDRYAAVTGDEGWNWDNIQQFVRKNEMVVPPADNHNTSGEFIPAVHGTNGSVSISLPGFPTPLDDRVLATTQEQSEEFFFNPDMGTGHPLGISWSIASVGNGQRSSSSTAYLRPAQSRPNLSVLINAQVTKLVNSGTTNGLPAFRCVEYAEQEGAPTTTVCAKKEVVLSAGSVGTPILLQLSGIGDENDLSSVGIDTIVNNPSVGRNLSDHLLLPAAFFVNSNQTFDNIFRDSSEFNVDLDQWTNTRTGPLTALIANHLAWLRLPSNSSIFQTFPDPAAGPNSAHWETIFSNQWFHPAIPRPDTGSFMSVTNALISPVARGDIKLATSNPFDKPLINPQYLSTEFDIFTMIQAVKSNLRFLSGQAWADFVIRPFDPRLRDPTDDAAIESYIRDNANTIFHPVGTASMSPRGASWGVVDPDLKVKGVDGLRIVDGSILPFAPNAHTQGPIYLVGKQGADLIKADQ", "assay": "Redox state of the enzyme during turnover (stopped-flow)", "type": "biochemical", "details": "BQ as electron acceptor, regardless of the alcohol substrate, anaerobic, pH 6.0, 25 °C", "description": "Experiments with O2 were performed with the alcohol under air-saturated conditions, while in the case of BQ, the alcohol was mixed with saturating concentration of BQ (300 µM) under anaerobic conditions. The spectral evolution of the enzymes during redox turnover was recorded between 350 and 700 nm."}, "BaAAO [2]": {"target": "T2, BaAAO (Bjerkandera adusta, UniProt A0ABF7PQ87)", "T2 sequence (A0ABF7PQ87 entry or part of it)": "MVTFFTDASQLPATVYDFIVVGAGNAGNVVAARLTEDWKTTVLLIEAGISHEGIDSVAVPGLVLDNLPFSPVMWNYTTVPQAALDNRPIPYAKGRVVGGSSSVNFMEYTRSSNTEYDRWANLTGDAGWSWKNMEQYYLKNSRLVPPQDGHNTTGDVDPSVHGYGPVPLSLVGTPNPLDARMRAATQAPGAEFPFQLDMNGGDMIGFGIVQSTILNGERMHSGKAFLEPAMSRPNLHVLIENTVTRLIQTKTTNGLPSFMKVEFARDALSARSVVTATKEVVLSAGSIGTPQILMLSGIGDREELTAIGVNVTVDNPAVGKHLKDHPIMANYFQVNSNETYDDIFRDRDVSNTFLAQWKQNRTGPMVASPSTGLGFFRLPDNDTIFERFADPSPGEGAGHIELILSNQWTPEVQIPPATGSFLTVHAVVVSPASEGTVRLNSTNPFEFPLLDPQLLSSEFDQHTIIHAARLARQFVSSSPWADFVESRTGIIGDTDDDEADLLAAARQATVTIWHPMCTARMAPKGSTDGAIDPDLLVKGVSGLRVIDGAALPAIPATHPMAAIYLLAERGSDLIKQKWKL", "set-up": "method as in Ferreira et al. (2023)", "details": "alcohol substrate 4-methoxybenzyl alcohol, 50 mM phosphate, pH 6.0, 25 °C, ref Ferreira et al. (2023); cited from earlier work"}, "PeAAO [3]": {"target": "T1, PeAAO", "assay": "Stopped-flow oxidative half-reaction (flavin reoxidation by O2 or BQ)", "details": "for second phase of reoxidation (k ox B→C): two-step model"}, "BaAAO [4]": {"target": "T2, BaAAO", "assay": "Isothermal titration calorimetry with BQ", "type": "binding", "description": "(§1) The interaction parameters of the enzymes with BQ were determined using an Auto-ITC200 high-sensitivity microcalorimeter (MicroCal, Malvern-Panalytical) thermostatted at 25 °C. Enzyme solutions (∼6 μM for BaAAO and 15 μM for PeAAO) were titrated with BQ (∼50 µM for BaAAO and ∼100 μM for PeAAO) in 50 mM Tris/HCl, pH 7.0. Up to 19 injections of 2 µL were programmed with enough time spacing for the signal to recover the baseline. The association constant (K a), the enthalpy change (ΔH) and the apparent stoichiometry (n) were estimated through non-linear regression of the experimental data using a model for one binding site implemented in Origin (Origin 7.0, OriginLab). The dissociation constant (K d), the Gibbs energy change (ΔG), and the entropy change (–TΔS) were obtained from basic thermodynamic relationships."}, "PeAAO [5]": {"target": "T1, PeAAO", "assay": "Isothermal titration calorimetry with BQ", "type": "binding", "description": "as §1"}, "PeAAO [6]": {"target": "T1, PeAAO", "set-up": "method as in Ferreira et al. (2023)", "details": "alcohol substrate 4-methoxybenzyl alcohol, 50 mM phosphate, pH 6.0, 25 °C, ref Ferreira et al. (2023); cited from earlier work"}, "BaAAO [7]": {"target": "T2, BaAAO", "assay": "Steady-state bi-substrate kinetics of alcohol oxidation", "type": "biochemical", "details": "BaAAO, alcohol substrate 3-Cl-4-methoxybenzyl alcohol; 50 mM phosphate, pH 6.0, 25 °C", "description": "(§2) Bi-substrate kinetics were analyzed by concurrently varying the concentration of the aforementioned alcohols and electron acceptors. Oxygen assays were carried out in a screw-cap cuvette where the alcohol was equilibrated with the desired concentration of O2 by bubbling with the appropriate O2/N2 gas mixture (4%, 10%, 21%, 44%, and 100% O2) for 10 min. Alcohol oxidation was initiated by the addition of the enzyme and followed at 285 nm for 4-methoxybenzaldehyde production and 295 nm in the case of 3-Cl-4-methoxybenzaldehyde (Δε285 = 16,950 M^−1cm^−1 and Δε295 = 15,000 M^−1cm^−1, respectively) ([Ferreira et al., 2005]). […]. BQ solutions were prepared immediately prior to use and protected from the light to avoid photodegradation.\n(§3) The initial rates for bi-substrate kinetics were fitted to Eq. 1 or Eq. 2, which describe sequential and ping-pong kinetic mechanisms, respectively. […]"}, "PeAAO [8]": {"target": "T1, PeAAO", "assay": "Steady-state bi-substrate kinetics of alcohol oxidation", "type": "biochemical", "details": "alcohol substrate 3-Cl-4-methoxybenzyl alcohol, 50 mM phosphate, pH 6.0, 25 °C", "description": "as §2, §3"}, "BaAAO [9]": {"target": "T2, BaAAO", "assay": "Redox state of the enzyme during turnover (stopped-flow)", "type": "biochemical", "details": "BQ as electron acceptor, both alcohols, anaerobic, pH 6.0, 25 °C"}},
  "note": "Read-outs that look alike come from different tables or passages of the source.",
  "data": [
    {"smiles": "O=C1C=CC(=O)C=C1", "note": "[BQ, 1,4-benzoquinone]", "values": [
      {"measurement": "enzyme in the oxidized state during turnover", "setting": "PeAAO [1]", "value": "85%–92%"},
      {"measurement": "k cat/K m(acceptor)", "setting": "BaAAO [2]", "value": "450000 ± 70000", "unit": "M⁻¹ s⁻¹"},
      {"measurement": "reverse rate constant (k rev), y-axis intercept of reoxidation", "setting": "PeAAO [3]; PeAAO", "value": 55, "unit": "s⁻¹"},
      {"measurement": "second phase of reoxidation (k ox B→C)", "setting": "PeAAO [3]; PeAAO reoxidized with 50 µM of BQ", "value": "5 to 10", "unit": "s⁻¹"},
      {"measurement": "second phase of reoxidation (k ox B→C)", "setting": "PeAAO [3]; PeAAO reoxidized with 100 µM of BQ", "value": "15 to 20", "unit": "s⁻¹"},
      {"measurement": "first phase share of the total amplitude of reoxidation", "setting": "PeAAO [3]; PeAAO, 50 µM of BQ", "value": "more than 50%"},
      {"measurement": "first phase share of the total amplitude of reoxidation", "setting": "PeAAO [3]; PeAAO, 100 µM of BQ", "value": "> 85", "unit": "%"},
      {"measurement": "Kd", "setting": "BaAAO [4]", "value": 0.05, "unit": "µM"},
      {"measurement": "K d of alcohols higher than K d of BQ", "setting": "BaAAO [4]; BaAAO", "value": "≤ 15,000 fold"},
      {"measurement": "ΔH", "setting": "BaAAO [4]; BaAAO, ITC, 25 °C, 50 mM Tris/HCl, pH 7.0, error ±0.4", "value": -21.4, "unit": "kcal/mol"},
      {"measurement": "ΔG", "setting": "BaAAO [4]; BaAAO, ITC, 25 °C, 50 mM Tris/HCl, pH 7.0, from K d", "value": -9.9, "unit": "kcal/mol"},
      {"measurement": "–TΔS", "setting": "BaAAO [4]; BaAAO, ITC, 25 °C, 50 mM Tris/HCl, pH 7.0, –TΔS = ΔG–ΔH", "value": 11.5, "unit": "kcal/mol"},
      {"measurement": "Kd", "setting": "PeAAO [5]", "value": 27.1, "unit": "µM"},
      {"measurement": "ΔH", "setting": "PeAAO [5]; PeAAO, ITC, 25 °C, 50 mM Tris/HCl, pH 7.0, error ±0.4", "value": -25.1, "unit": "kcal/mol"},
      {"measurement": "ΔG", "setting": "PeAAO [5]; PeAAO, ITC, 25 °C, 50 mM Tris/HCl, pH 7.0, from K d", "value": -6.2, "unit": "kcal/mol"},
      {"measurement": "–TΔS", "setting": "PeAAO [5]; PeAAO, ITC, 25 °C, 50 mM Tris/HCl, pH 7.0, –TΔS = ΔG–ΔH", "value": 18.9, "unit": "kcal/mol"},
      {"measurement": "k cat/K m(acceptor)", "setting": "PeAAO [6]", "value": "1,025 ± 154 s^−1mM^−1"},
      {"measurement": "k cat/K m(acceptor)", "setting": "BaAAO [7]", "value": "353000 ± 65000", "unit": "M⁻¹ s⁻¹"},
      {"measurement": "k cat/K m(acceptor)", "setting": "PeAAO [8]", "value": "722000 ± 64000", "unit": "M⁻¹ s⁻¹"},
      {"measurement": "enzyme in the oxidized state during turnover", "setting": "BaAAO [9]", "value": "~90", "unit": "%"}
    ]}
  ]
}
